Positions of bridges follow the written chain, without caps; N, C: chain ends. Residues, ends and D or L forms follow the SMILES beside them. *: point of attachment. Biotin = O=C1N[C@H]2[C@H](CS[C@H]2CCCCC(=O)*)N1
Key:
IGF-1R [1] = biological target: T1, IGF-1R (Homo sapiens, UniProt P08069); test: Phage ELISA, binding of phage-displayed peptides to IGF-1R; conditions: 405 nm
T1 construct: Soluble IGF-1R was obtained from R&D Systems; purchased R&D Systems 391-GR/CF
Method: Figures 1A-10G. Amino acid sequences comprising the motif of Formulas 1 through 10. […] One hundred microliters of this solution was added to an appropriate number of wells in a 96-well microtiter plate (MaxiSorp plates, Nunc) and incubated overnight at 4°C. […] Subsequent steps are the same for pooled and clonal phage. […] Phage resuspended in MPBS were added to duplicate wells (100 µl/well) and incubated at RT for 1 h. […] Incubation was for 1 h at RT, followed by PBS washes as described. […] Phage ELISA. […] The wells were blocked with 200 µl of MPBS for 1.5 h at RT. Phage were added at 100 µl per well. Peptides were added as noted below and allowed to incubate at RT for 3 h. The plates were washed 3 times with PBST. A solution of 1:3000 diluted HRP:Anti-M13 conjugate at 100 µl per well of was added for 1 h. Following a repeat of the washing, 100 µl of ABTS was added for 15-30 min. […] Phage ELISA. […] Phage were added at 100 µl per well. Peptides were added as noted below and allowed to incubate at RT for 3 h. The plates were washed 3X with PBST. A solution of 1:3000 diluted HRP:Anti-M13 Conjugate at 100 µl per well of was added for 1 h. Following a repeat of the washing, 100 µl of ABTS was added for 15-30 min. The OD405 was measured using a SpectraMax 340 Microplate Spectrophotometer.

IR = biological target: T2, IR (Homo sapiens, UniProt P06213); test: Phage ELISA, binding of phage-displayed peptides to IR; conditions: 405 nm
T2 construct: composed of the extracellular domains of both the α and β chains of the natural receptor; made in house; background b13 names human embryonic kidney 293 cells for the Bass et al. construct

adipocytes = test: 3H-glucose uptake into adipocytes (fat cell assay, FFC); type: cell-based, Mouse; conditions: Subjective ranking; basal and sub maximal insulin; includes series A
[2] = biological target: T3, purified insulin receptor (Homo sapiens, UniProt P06213); test: Holoenzyme phosphorylation assay (IR autophosphorylation, Western blot); type: biochemical
T3 construct: host or cells: 'Wheat Germ Agglutinin Expression System' (so in the source)
Method: Alternatively, IR autophosphorylation was determined using a holoenzyme phosphorylation assay. […] The reaction was stopped by adding 50 µl of gel loading buffer containing β-mercaptoethanol (Bio-Rad Laboratories, Inc., Hercules, CA). The samples were run on 4-12% SDS-polyacrylamide gels. Western Blot analysis was performed by transferring the proteins onto nitrocellulose membrane. The membrane was blocked in PBS containing 3% milk overnight. The membrane was incubated with anti-phosphotyrosine 4G10 HRP labeled antibody (Upstate Biotechnology) for 2 h. Protein bands were visualized using SuperSignal West Dura Extended Duration Substrate Chemiluminescence Detection System (Pierce Chemical Co.).

Insulin receptor = biological target: T4, Insulin receptor (Homo sapiens, UniProt P06213); test: BIAcore competition: IR pre-incubated with test substance, injected over immobilised insulin; type: binding; conditions: peptide about 40 µM, IR 450 nM; IR alone 128 RU
T4 construct: composed of the extracellular domains of both the α and β chains of the natural receptor; made in house; background b13 names human embryonic kidney 293 cells for the Bass et al. construct
Method: Flowcell-1 was used for background binding to correct for any non-specific binding. […] The surface was regenerated with 25 mM NaOH. […] Thus, the system was validated for competition studies. […] The amino acid sequences referred to in the tables are identified in Figures 47 and 48, except the 447 and 2A9 sequences, which are shown below. TABLE 9: BIAcore Results-Fusion Proteins Compete for Binding to IR

IGF-1R [3] = biological target: T1, IGF-1R; test: IGF-1R peptide assay, competition dissociation of 20E2; type: binding; conditions: peptides 100 µM, IGF-1 30 µM
Method: • a. Preparation of the Assay Mix. […] This mixture was allowed to pre-incubate. • b. 20 µl of Competitor and Buffer were added to a 96-well microtiter plate (Costar Cat. #3912). • c. […] After the original 99 repeat readings were taken, periodic readings were taken until equilibrium had been established. NOTE: Different conditions can be used for these experiments. For example, a 1.1X concentration of assay mix can be initially made. Then first add 10 µl of Competitor and Buffer to the microtiter plate followed by 90 µl of the Assay Mix. • f.

[4] = Precipitate in diluted peptide stock prior to adding to the fat cell assay; solubility under assay conditions; type: physicochemical; conditions: diluted stock prior to adding to assay

T1 sequence (P08069 31-736 limits assumed): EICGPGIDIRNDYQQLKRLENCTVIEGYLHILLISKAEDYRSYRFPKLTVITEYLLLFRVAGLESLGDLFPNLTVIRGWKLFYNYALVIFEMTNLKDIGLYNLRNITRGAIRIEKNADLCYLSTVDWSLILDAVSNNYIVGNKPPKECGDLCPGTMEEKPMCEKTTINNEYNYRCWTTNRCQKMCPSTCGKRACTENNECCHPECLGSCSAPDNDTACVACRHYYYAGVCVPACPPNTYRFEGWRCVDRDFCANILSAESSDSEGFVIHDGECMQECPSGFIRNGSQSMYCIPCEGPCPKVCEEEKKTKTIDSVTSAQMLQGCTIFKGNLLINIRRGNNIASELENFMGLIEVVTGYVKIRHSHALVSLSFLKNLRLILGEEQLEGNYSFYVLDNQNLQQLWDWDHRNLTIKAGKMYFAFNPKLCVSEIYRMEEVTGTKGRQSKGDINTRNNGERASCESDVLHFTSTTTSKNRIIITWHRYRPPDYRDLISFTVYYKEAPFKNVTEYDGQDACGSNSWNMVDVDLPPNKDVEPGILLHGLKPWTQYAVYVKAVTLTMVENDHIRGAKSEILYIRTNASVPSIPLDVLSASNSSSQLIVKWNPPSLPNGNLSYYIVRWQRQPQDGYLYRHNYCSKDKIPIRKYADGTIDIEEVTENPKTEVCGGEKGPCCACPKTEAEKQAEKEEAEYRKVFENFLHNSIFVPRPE
T1 sequence (P08069 741-935 limits assumed): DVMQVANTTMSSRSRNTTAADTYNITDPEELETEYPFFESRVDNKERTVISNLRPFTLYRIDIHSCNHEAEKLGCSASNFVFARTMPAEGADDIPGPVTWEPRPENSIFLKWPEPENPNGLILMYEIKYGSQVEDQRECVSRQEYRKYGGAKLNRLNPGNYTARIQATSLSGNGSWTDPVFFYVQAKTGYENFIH
T3 sequence (P06213 28-758 limits assumed): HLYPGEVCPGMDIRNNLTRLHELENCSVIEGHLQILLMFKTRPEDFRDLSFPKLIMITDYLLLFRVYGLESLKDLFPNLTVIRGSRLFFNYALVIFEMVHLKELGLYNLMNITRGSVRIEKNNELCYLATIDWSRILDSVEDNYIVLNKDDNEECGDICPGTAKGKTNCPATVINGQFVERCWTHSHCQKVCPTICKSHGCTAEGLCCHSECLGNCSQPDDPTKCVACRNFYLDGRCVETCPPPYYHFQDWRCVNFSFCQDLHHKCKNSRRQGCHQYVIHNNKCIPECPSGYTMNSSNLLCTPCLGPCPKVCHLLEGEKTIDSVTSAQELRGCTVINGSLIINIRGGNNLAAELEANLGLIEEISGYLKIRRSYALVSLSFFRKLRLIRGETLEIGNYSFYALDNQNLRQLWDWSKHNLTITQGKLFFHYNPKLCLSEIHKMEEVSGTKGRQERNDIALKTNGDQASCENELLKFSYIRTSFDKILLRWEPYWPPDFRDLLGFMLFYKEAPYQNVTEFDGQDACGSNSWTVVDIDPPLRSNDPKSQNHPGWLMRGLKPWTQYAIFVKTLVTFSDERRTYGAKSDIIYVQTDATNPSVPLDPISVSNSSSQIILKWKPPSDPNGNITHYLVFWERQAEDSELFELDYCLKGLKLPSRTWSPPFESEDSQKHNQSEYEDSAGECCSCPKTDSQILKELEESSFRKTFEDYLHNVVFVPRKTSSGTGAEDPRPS
T3 sequence (P06213 763-1382 limits assumed): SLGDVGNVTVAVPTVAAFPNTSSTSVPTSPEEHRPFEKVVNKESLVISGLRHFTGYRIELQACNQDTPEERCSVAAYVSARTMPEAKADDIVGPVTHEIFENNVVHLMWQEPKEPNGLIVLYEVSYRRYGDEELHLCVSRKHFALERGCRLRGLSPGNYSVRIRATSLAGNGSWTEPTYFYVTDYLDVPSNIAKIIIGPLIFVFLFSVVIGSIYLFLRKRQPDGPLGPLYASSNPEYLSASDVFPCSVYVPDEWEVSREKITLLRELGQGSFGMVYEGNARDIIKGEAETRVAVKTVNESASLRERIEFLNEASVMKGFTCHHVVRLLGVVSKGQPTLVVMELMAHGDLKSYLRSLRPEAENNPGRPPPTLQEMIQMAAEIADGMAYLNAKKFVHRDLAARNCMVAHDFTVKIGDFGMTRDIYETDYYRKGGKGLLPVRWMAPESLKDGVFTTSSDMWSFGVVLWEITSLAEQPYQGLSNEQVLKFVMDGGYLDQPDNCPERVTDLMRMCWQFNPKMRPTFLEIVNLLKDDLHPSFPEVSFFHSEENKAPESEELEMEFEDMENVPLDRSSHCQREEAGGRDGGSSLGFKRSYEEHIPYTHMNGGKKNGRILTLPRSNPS
T4 sequence (P06213 28-758 limits assumed): as the sequence (P06213 28-758 limits assumed) above
T4 sequence (P06213 763-956 limits assumed): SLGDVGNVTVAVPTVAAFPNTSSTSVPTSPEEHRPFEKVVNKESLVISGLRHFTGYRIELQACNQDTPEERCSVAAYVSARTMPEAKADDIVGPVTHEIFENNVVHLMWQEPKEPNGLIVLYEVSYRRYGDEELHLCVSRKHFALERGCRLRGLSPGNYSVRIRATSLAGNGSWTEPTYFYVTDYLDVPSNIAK
T2 sequence (P06213 28-758 limits assumed): as the sequence (P06213 28-758 limits assumed) above
T2 sequence (P06213 763-956 limits assumed): as the sequence (P06213 763-956 limits assumed) above

Question: Which results are given for CC(C)C[C@H](NC(=O)[C@H](Cc1c[nH]c2ccccc12)NC(=O)[C@@H](N)CCCCN)C(=O)N[C@@H](CC(=O)O)C(=O)N[C@@H](CCC(N)=O)C(=O)N[C@@H](CCC(=O)O)C(=O)N[C@@H](Cc1c[nH]c2ccccc12)C(=O)N[C@@H](C)C(=O)N[C@@H](Cc1c[nH]c2ccccc12)C(=O)N[C@H](C(=O)N[C@@H](CCC(N)=O)C(=O)N[C@H]1CSSC[C@@H](C(=O)N2CCC[C@H]2C(=O)N[C@@H](CO)C(=O)N[C@@H](CCCCN)C(=O)N[C@@H](CCCCNC(=O)CCCC[C@@H]2SC[C@@H]3NC(=O)N[C@@H]32)C(N)=O)NC(=O)CNC(=O)[C@H](CCCNC(=N)N)NC(=O)CNC(=O)[C@H](Cc2ccc(O)cc2)NC(=O)[C@H](C(C)C)NC(=O)[C@H](CCC(=O)O)NC1=O)C(C)C [Clone D8] (H-KWLDQEWAWVQCEVYGRGCPSKK(Biotin)-NH2; disulfide 12-19 (inferred); N-terminus assumed)?
Answer: Absorbance Values sIGF-1R (IGF-1R [1]): 2.19; Absorbance Values IR (IR): 1.42; Resp. (adipocytes): -1; Autophosph. Blot [2]: 0; Result (RUs) (Insulin receptor): 41.6 RUs; effect on dissociation rate of 20E2 from IGF-1R (IGF-1R [3]): much slower dissociation rate; Comments (precipitation) [4]: Precipitates

From patent publication EP1383793B1 (priority 2000, dated 2001)
